# Experimental data from US20150017667A1, “MEANS AND METHODS FOR ASSESSING LIVER DISORDERS” (BASF SE, priority 2012, published 2015).
# Marks after values point to notes of the source that are not given here.
# Test system: female rats
# Assay: 28-day repeated dose oral toxicity study (OECD 407) with GC-MS/LC-MS plasma metabolite profiling, female rats
compound,measurement,setting,value
CN1CCCC1=O [1-Methyl-2-pyrrolidon],"3-O-Methylsphingosine (d18:1), ratio versus control",day 7,2.14*
same,"5-O-Methylsphingosine (d18:1), ratio versus control",day 7,2.42*
same,"14-Methylhexadecanoic acid, ratio versus control",day 7,1.15
same,"Behenic acid (C22:0), ratio versus control",day 7,1.9*
same,"Cholesterol, ratio versus control",day 7,1.73*
same,"Coenzyme Q9, ratio versus control",day 7,2.46*
same,"DAG (C18:1,C18:2), ratio versus control",day 7,2.43*
same,"Eicosanoic acid (C20:0), ratio versus control",day 7,1.77*
same,"Glucose, ratio versus control",day 7,1.05*
same,"Glycerol phosphate, lipid fraction, ratio versus control",day 7,1.86*
same,"Glycerol, lipid fraction, ratio versus control",day 7,2.24*
same,"Glycerol-3-phosphate, polar fraction, ratio versus control",day 7,1.9*
same,"Heptadecanoic acid (C17:0), ratio versus control",day 7,1.46*
same,"Linoleic acid (C18:cis[9,12]2), ratio versus control",day 7,2.52*
same,"Nervonic acid (C24:cis[15]1), ratio versus control",day 7,1.75*
same,"Palmitic acid (C16:0), ratio versus control",day 7,1.91*
same,"Phosphatidylcholine (C16:0,C20:5), ratio versus control",day 7,1.32*
same,"TAG (C16:0,C18:1,C18:3), ratio versus control",day 7,3.94*
same,"TAG (C16:0,C18:2), ratio versus control",day 7,2.46*
same,"TAG (C18:1,C18:2), ratio versus control",day 7,3.73*
same,"TAG (C18:2,C18:2), ratio versus control",day 7,3.44*
same,"TAG (C18:2,C18:3), ratio versus control",day 7,4.16*
same,"TAG No 01, ratio versus control",day 7,3.21*
same,"TAG No 05, ratio versus control",day 7,3.11*
same,"TAG No 07, ratio versus control",day 7,3.69*
same,"dihomo-gamma-Linolenic acid (C20:cis[8,11,14]3), ratio versus control",day 7,2.37*
same,"erythro-Sphingosine, ratio versus control",day 7,2.19*
same,"3-O-Methylsphingosine (d18:1), ratio versus control",day 14,2.3*
same,"5-O-Methylsphingosine (d18:1), ratio versus control",day 14,2.31*
same,"14-Methylhexadecanoic acid, ratio versus control",day 14,0.93
same,"Behenic acid (C22:0), ratio versus control",day 14,2.04*
same,"Cholesterol, ratio versus control",day 14,2.16*
same,"Coenzyme Q9, ratio versus control",day 14,2.57*
same,"DAG (C18:1,C18:2), ratio versus control",day 14,2.31*
same,"Eicosanoic acid (C20:0), ratio versus control",day 14,1.8*
same,"Glucose, ratio versus control",day 14,0.99
same,"Glycerol phosphate, lipid fraction, ratio versus control",day 14,1.72*
same,"Glycerol, lipid fraction, ratio versus control",day 14,2.33*
same,"Glycerol-3-phosphate, polar fraction, ratio versus control",day 14,1.11*
same,"Heptadecanoic acid (C17:0), ratio versus control",day 14,1.39*
same,"Linoleic acid (C18:cis[9,12]2), ratio versus control",day 14,2.4*
same,"Nervonic acid (C24:cis[15]1), ratio versus control",day 14,1.64*
same,"Palmitic acid (C16:0), ratio versus control",day 14,1.95*
same,"Phosphatidylcholine (C16:0,C20:5), ratio versus control",day 14,1.45*
same,"TAG (C16:0,C18:1,C18:3), ratio versus control",day 14,4.14*
same,"TAG (C16:0,C18:2), ratio versus control",day 14,3.6*
same,"TAG (C18:1,C18:2), ratio versus control",day 14,3.82*
same,"TAG (C18:2,C18:2), ratio versus control",day 14,3.56*
same,"TAG (C18:2,C18:3), ratio versus control",day 14,3.61*
same,"TAG No 01, ratio versus control",day 14,4.15*
same,"TAG No 05, ratio versus control",day 14,5.32*
same,"TAG No 07, ratio versus control",day 14,3.84*
same,"dihomo-gamma-Linolenic acid (C20:cis[8,11,14]3), ratio versus control",day 14,2.16*
same,"erythro-Sphingosine, ratio versus control",day 14,2.27*
same,"3-O-Methylsphingosine (d18:1), ratio versus control",day 28,1.83*
same,"5-O-Methylsphingosine (d18:1), ratio versus control",day 28,1.89*
same,"14-Methylhexadecanoic acid, ratio versus control",day 28,1.35*
same,"Behenic acid (C22:0), ratio versus control",day 28,2.06*
same,"Cholesterol, ratio versus control",day 28,2.38*
same,"Coenzyme Q9, ratio versus control",day 28,3.27*
same,"DAG (C18:1,C18:2), ratio versus control",day 28,6.81*
same,"Eicosanoic acid (C20:0), ratio versus control",day 28,2.79*
same,"Glucose, ratio versus control",day 28,0.76*
same,"Glycerol phosphate, lipid fraction, ratio versus control",day 28,2.59*
same,"Glycerol, lipid fraction, ratio versus control",day 28,5.75*
same,"Glycerol-3-phosphate, polar fraction, ratio versus control",day 28,1.29
same,"Heptadecanoic acid (C17:0), ratio versus control",day 28,2.17*
same,"Linoleic acid (C18:cis[9,12]2), ratio versus control",day 28,4.46*
same,"Nervonic acid (C24:cis[15]1), ratio versus control",day 28,1.75*
same,"Palmitic acid (C16:0), ratio versus control",day 28,3.53*
same,"Phosphatidylcholine (C16:0,C20:5), ratio versus control",day 28,1.35*
same,"TAG (C16:0,C18:1,C18:3), ratio versus control",day 28,11.37*
same,"TAG (C16:0,C18:2), ratio versus control",day 28,3.51*
same,"TAG (C18:1,C18:2), ratio versus control",day 28,7.38*
same,"TAG (C18:2,C18:2), ratio versus control",day 28,7.33*
same,"TAG (C18:2,C18:3), ratio versus control",day 28,11.21*
same,"TAG No 01, ratio versus control",day 28,11.51*
same,"TAG No 05, ratio versus control",day 28,10.76*
same,"TAG No 07, ratio versus control",day 28,14.21*
same,"dihomo-gamma-Linolenic acid (C20:cis[8,11,14]3), ratio versus control",day 28,3.96*
same,"erythro-Sphingosine, ratio versus control",day 28,1.9*
"CNC(=O)/C(=N/OC)c1ccccc1COc1cc(C)ccc1C [Dimoxystrobin, (E)-2-(methoxyimino)-N-methyl-2-[alpha-(2,5-xylyloxy)-o-tolyl]acetamide]","3-O-Methylsphingosine (d18:1), ratio versus control",day 7,2.18*
same,"5-O-Methylsphingosine (d18:1), ratio versus control",day 7,1.94*
same,"14-Methylhexadecanoic acid, ratio versus control",day 7,1.27
same,"Behenic acid (C22:0), ratio versus control",day 7,2.03*
same,"Cholesterol, ratio versus control",day 7,1.66*
same,"Coenzyme Q9, ratio versus control",day 7,1.51*
same,"DAG (C18:1,C18:2), ratio versus control",day 7,2.28*
same,"Eicosanoic acid (C20:0), ratio versus control",day 7,2.23*
same,"Glucose, ratio versus control",day 7,1.14
same,"Glycerol phosphate, lipid fraction, ratio versus control",day 7,1.68*
same,"Glycerol, lipid fraction, ratio versus control",day 7,2.08*
same,"Glycerol-3-phosphate, polar fraction, ratio versus control",day 7,1.38
same,"Heptadecanoic acid (C17:0), ratio versus control",day 7,1.81*
same,"Linoleic acid (C18:cis[9,12]2), ratio versus control",day 7,2.12*
same,"Nervonic acid (C24:cis[15]1), ratio versus control",day 7,1.83*
same,"Palmitic acid (C16:0), ratio versus control",day 7,1.99*
same,"Phosphatidylcholine (C16:0,C20:5), ratio versus control",day 7,1.33*
same,"TAG (C16:0,C18:1,C18:3), ratio versus control",day 7,4.17*
same,"TAG (C16:0,C18:2), ratio versus control",day 7,3.49*
same,"TAG (C18:1,C18:2), ratio versus control",day 7,4.18*
same,"TAG (C18:2,C18:2), ratio versus control",day 7,3.69*
same,"TAG (C18:2,C18:3), ratio versus control",day 7,3.61*
same,"TAG No 01, ratio versus control",day 7,2.62*
same,"TAG No 05, ratio versus control",day 7,2.89*
same,"TAG No 07, ratio versus control",day 7,2.5*
same,"dihomo-gamma-Linolenic acid (C20:cis[8,11,14]3), ratio versus control",day 7,2.95*
same,"erythro-Sphingosine, ratio versus control",day 7,1.86*
same,"3-O-Methylsphingosine (d18:1), ratio versus control",day 14,1.78*
same,"5-O-Methylsphingosine (d18:1), ratio versus control",day 14,1.94*
same,"14-Methylhexadecanoic acid, ratio versus control",day 14,1.15
same,"Behenic acid (C22:0), ratio versus control",day 14,2.23*
same,"Cholesterol, ratio versus control",day 14,1.7*
same,"Coenzyme Q9, ratio versus control",day 14,1.91
same,"DAG (C18:1,C18:2), ratio versus control",day 14,2.99*
same,"Eicosanoic acid (C20:0), ratio versus control",day 14,2.54*
same,"Glucose, ratio versus control",day 14,1.17
same,"Glycerol phosphate, lipid fraction, ratio versus control",day 14,1.69*
same,"Glycerol, lipid fraction, ratio versus control",day 14,2.44*
same,"Glycerol-3-phosphate, polar fraction, ratio versus control",day 14,1.32*
same,"Heptadecanoic acid (C17:0), ratio versus control",day 14,1.73*
same,"Linoleic acid (C18:cis[9,12]2), ratio versus control",day 14,2.2*
same,"Nervonic acid (C24:cis[15]1), ratio versus control",day 14,1.54*
same,"Palmitic acid (C16:0), ratio versus control",day 14,1.89*
same,"Phosphatidylcholine (C16:0,C20:5), ratio versus control",day 14,1.54*
same,"TAG (C16:0,C18:1,C18:3), ratio versus control",day 14,5.45*
same,"TAG (C16:0,C18:2), ratio versus control",day 14,4.36*
same,"TAG (C18:1,C18:2), ratio versus control",day 14,3.37*
same,"TAG (C18:2,C18:2), ratio versus control",day 14,3.82*
same,"TAG (C18:2,C18:3), ratio versus control",day 14,2.41*
same,"TAG No 01, ratio versus control",day 14,1.93*
same,"TAG No 05, ratio versus control",day 14,3.02*
same,"TAG No 07, ratio versus control",day 14,3.54*
same,"dihomo-gamma-Linolenic acid (C20:cis[8,11,14]3), ratio versus control",day 14,2.58*
same,"erythro-Sphingosine, ratio versus control",day 14,1.78*
same,"3-O-Methylsphingosine (d18:1), ratio versus control",day 28,1.52*
same,"5-O-Methylsphingosine (d18:1), ratio versus control",day 28,1.59*
same,"14-Methylhexadecanoic acid, ratio versus control",day 28,1.31*
same,"Behenic acid (C22:0), ratio versus control",day 28,2.03*
same,"Cholesterol, ratio versus control",day 28,1.75*
same,"Coenzyme Q9, ratio versus control",day 28,1.78*
same,"DAG (C18:1,C18:2), ratio versus control",day 28,2.85*
same,"Eicosanoic acid (C20:0), ratio versus control",day 28,2.08*
same,"Glucose, ratio versus control",day 28,1.15
same,"Glycerol phosphate, lipid fraction, ratio versus control",day 28,1.98*
same,"Glycerol, lipid fraction, ratio versus control",day 28,2.58*
same,"Glycerol-3-phosphate, polar fraction, ratio versus control",day 28,1.79
same,"Heptadecanoic acid (C17:0), ratio versus control",day 28,2.84*
same,"Linoleic acid (C18:cis[9,12]2), ratio versus control",day 28,2.2*
same,"Nervonic acid (C24:cis[15]1), ratio versus control",day 28,1.38*
same,"Palmitic acid (C16:0), ratio versus control",day 28,2.03*
same,"Phosphatidylcholine (C16:0,C20:5), ratio versus control",day 28,1.15*
same,"TAG (C16:0,C18:1,C18:3), ratio versus control",day 28,3.93*
same,"TAG (C16:0,C18:2), ratio versus control",day 28,3.68*
same,"TAG (C18:1,C18:2), ratio versus control",day 28,4.49*
same,"TAG (C18:2,C18:2), ratio versus control",day 28,5.11*
same,"TAG (C18:2,C18:3), ratio versus control",day 28,3.9*
same,"TAG No 01, ratio versus control",day 28,2.61*
same,"TAG No 05, ratio versus control",day 28,4.39*
same,"TAG No 07, ratio versus control",day 28,4.13*
same,"dihomo-gamma-Linolenic acid (C20:cis[8,11,14]3), ratio versus control",day 28,3.54*
same,"erythro-Sphingosine, ratio versus control",day 28,1.46*
